# Measurements as given in patent US6064908A, “Device for ionophoresis comprising at least a membrane electrode assembly, for the transcutaneous administration of active principles to a subject” (Elf Aquitaine, priority 1996, dated 2000).
# Experiments:
# nude rat skin = experiment: transdermic passage of pentasaccharide sodium salt by iontophoresis at set intensity through nude rat skin; format: in vitro ADME; settings: for Utilization factor of the active principle: quantity at 22 hours/initial quantity
# Description: The procedure was carried out in iontophoresis cells with identical structure. Each iontophoresis cell consisted of three coaxial, adjacent cylindrical compartments of 2 cm^2 cross section, namely, in this order, a donor compartment, a receiver compartment and a back electrode compartment, these three compartments each being separated from the next in leaktight fashion by a piece of nude rat skin from the same batch, serving as a skin sample for studying the transdermic diffusion. […] The receiver compartment, with a volume of 10 ml, contained a 9 g/liter solution of NaCl and was agitated using a magnetic bar. The back electrode compartment, with a volume of 0.5 ml, contained a 2% by weight aqueous solution of NaCl. At its end opposite the receiver compartment, the donor compartment was fitted with a negative electrode or cathode consisting of a 15 μm thick film of silver chloridized on one face to contain an AgCl layer corresponding to 2 mAh/cm^2. In the same way as the donor compartment, the back electrode compartment was equipped with a positive electrode or anode (back electrode) consisting of a 15 μm silver film weakly chloridized on the surface (a quantity of AgCl corresponding to 0.1 mAh/cm^2). The chloridized face of each electrode was turned towards the rat skin sample.
# The rat skin samples had had the subcutaneous tissues removed and were preserved by freezing at -40° C. until they were fitted in the iontophoresis cell, with the dermal faces turned towards the receiver compartment, after having spent 15 minutes in physiological salt solution.
# For each of the tests which were carried out, six identical iontophoresis cells were started up simultaneously. The active exchange surface was 2 cm^2 for each skin sample. […]
# At the end of the said period, an aliquot of the medium contained in the receiver compartment was taken, and the quantity of pentasaccharide which had passed through the skin separating the donor and receiver compartments of each cell was determined by assaying. A second sample was taken 22 hours after the start of each experiment, i.e. 17 hours after the end of the electric signal, in order to allow a significant proportion of the quantities of pentasaccharide active principle held in the skin sample to diffuse in the absence of subcutaneous blood circulation.
# Five tests 1a to 1e were carried out as follows:
# For each of the tests, the average antifactor Xa activity per ml of medium was determined on aliquots taken from the receiver compartments of the six cells, this representing the quantity of pentasaccharide which had diffused into these compartments after the 5 hours of applying the current and 22 hours after the start of each experiment, i.e. 17 hours after the end of the said current.
# The assay of the pentasaccharide in the receiver compartment was based on investigating its antifactor Xa activity. […] The calibration curve was established using a "Golden Standard" pentasaccharide solution to which an antifactor Xa activity equal to 13 units per ml was assigned.
# The data presented in this table are average results calculated over a series of six identical cells receiving the same quantities of electricity.
# factor Xa = experiment: antifactor Xa activity of the active principle; format: biochemical; settings: sodium salt
# Description: The assay of the pentasaccharide in the receiver compartment was based on investigating its antifactor Xa activity. The assay was carried out either directly on the medium sample from the receiver compartment or after dilution, using a ROTACHROM HEPARIN 8® assay kit, with a complementary buffer for the assay instrument and the bovine antithrombin III, these various elements being supplied by the company STAGO, using a HITACHI 717 assay instrument. The calibration curve was established using a "Golden Standard" pentasaccharide solution to which an antifactor Xa activity equal to 13 units per ml was assigned.
# [1] = Test 1a: no membrane, 5 mg/cm^2, 1 mAh/cm^2
# [2] = Test 1b: no membrane, 1 mg/cm^2, 1 mAh/cm^2
# [3] = Test 1c: cellulose acetate/POEG membrane 75 μm, 1 mg/cm^2, 0.9 mAh/cm^2
# [4] = Test 1e: PEBAX MV 1074 membrane 50 μm, hydrogel, 0.5 mg/cm^2, 1 mAh/cm^2
# [5] = Test 1d (PEBAX MV 1041 membrane) vs Test 1b (no membrane)
# [6] = Test 1d: PEBAX MV 1041 membrane 50 μm, 1 mg/cm^2, 1 mAh/cm^2
structure (smiles),measurement,setting,value
O=C(O)C1OC(OC2C(COS(=O)(=O)O)OC(OC3C(C(=O)O)OC(OC4C(COS(=O)(=O)O)OC(O)C(NS(=O)(=O)O)C4O)C(OS(=O)(=O)O)C3O)C(NS(=O)(=O)O)C2OS(=O)(=O)O)C(O)C(O)C1OC1OC(COS(=O)(=O)O)C(O)C(O)C1NS(=O)(=O)O (stereo not shown) [pentasaccharide],Quantity of active principle at 5 hours,"nude rat skin; Passive, no current, 5 mg/cm^2",1 μg/cm^2
same,Quantity of active principle at 22 hours,"nude rat skin; Passive, no current, 5 mg/cm^2",1.5 μg/cm^2
same,Quantity of active principle per mAh,"nude rat skin; Passive, no current, 5 mg/cm^2",1.5 μg/cm^2
same,aXa activity/ml at 5 hours,"nude rat skin; Passive, no current, 5 mg/cm^2",0.2 mL⁻¹
same,aXa activity/ml at 22 hours,"nude rat skin; Passive, no current, 5 mg/cm^2",0.3 mL⁻¹
same,Utilization factor of the active principle,"nude rat skin; Passive, no current, 5 mg/cm^2",0.03%
same,Quantity of active principle at 5 hours,nude rat skin; [1],115 μg/cm^2
same,Quantity of active principle at 22 hours,nude rat skin; [1],150 μg/cm^2
same,Quantity of active principle per mAh,nude rat skin; [1],150 μg/cm^2
same,aXa activity/ml at 5 hours,nude rat skin; [1],23 mL⁻¹
same,aXa activity/ml at 22 hours,nude rat skin; [1],30 mL⁻¹
same,Utilization factor of the active principle,nude rat skin; [1],3%
same,Quantity of active principle at 5 hours,nude rat skin; [2],110 μg/cm^2
same,Quantity of active principle at 22 hours,nude rat skin; [2],140 μg/cm^2
same,Quantity of active principle per mAh,nude rat skin; [2],140 μg/cm^2
same,aXa activity/ml at 5 hours,nude rat skin; [2],22 mL⁻¹
same,aXa activity/ml at 22 hours,nude rat skin; [2],28 mL⁻¹
same,Utilization factor of the active principle,nude rat skin; [2],14%
same,Quantity of active principle at 5 hours,nude rat skin; [3],75 μg/cm^2
same,Quantity of active principle at 22 hours,nude rat skin; [3],110 μg/cm^2
same,Quantity of active principle per mAh,nude rat skin; [3],125 μg/cm^2
same,aXa activity/ml at 5 hours,nude rat skin; [3],15 mL⁻¹
same,aXa activity/ml at 22 hours,nude rat skin; [3],20 mL⁻¹
same,Utilization factor of the active principle,nude rat skin; [3],11%
same,Quantity of active principle at 5 hours,nude rat skin; [4],245 μg/cm^2
same,Quantity of active principle at 22 hours,nude rat skin; [4],310 μg/cm^2
same,Quantity of active principle per mAh,nude rat skin; [4],310 μg/cm^2
same,aXa activity/ml at 5 hours,nude rat skin; [4],49 mL⁻¹
same,aXa activity/ml at 22 hours,nude rat skin; [4],62 mL⁻¹
same,Utilization factor of the active principle,nude rat skin; [4],62%
same,active principle depletion factor of the donor electrode assembly (in words),nude rat skin; [5],increased very substantially
same,quantity of active principle administered per unit quantity of electricity (in words),nude rat skin; [5],increased very substantially
same,Quantity of active principle at 5 hours,nude rat skin; [6],295 μg/cm^2
same,Quantity of active principle at 22 hours,nude rat skin; [6],390 μg/cm^2
same,Quantity of active principle per mAh,nude rat skin; [6],390 μg/cm^2
same,aXa activity/ml at 5 hours,nude rat skin; [6],59 mL⁻¹
same,aXa activity/ml at 22 hours,nude rat skin; [6],70 mL⁻¹
same,Utilization factor of the active principle,nude rat skin; [6],39%
same,passive transport of the pentasaccharide (in words),nude rat skin; no current,very low
same,antifactor Xa activity,factor Xa,"0.65 ""Golden Standard"" units per microgram"
